This is an account of results in patent publication US20220047494A1, “ANTIBACTERIAL, DEODORIZATION, EASING OF ACNE AND ATOPY OR SKIN CALMING-FUNCTIONAL COMPOSITION FOR Y-ZONE CLEANLINESS CONTAINING QUERCUS ACUTISSIMA SAP AND ZINC RICINOLEATE” (MEDICLASSIC.CO.LTD, priority 2020, published 2022).

In the assay the test system is Staphylococcus epidermidis (KTTC12228). Put plainly: Paper disk diffusion antibacterial activity. The format is cell-based. As to conditions: paper disk 8 mm, mean ± SD (n = 3). From the text:
In Experimental Example according to the present invention, Propionibacterium acnes (KCTC3314), which is an acne-causing pathogen, Candida albicans (ATCC 10231), which is a yeast that causes inflammatory or bacterial skin diseases, and Staphylococcus epidermidis (KTTC12228), which is gram-positive skin flora, were used. Propionibacterium acnes (KCTC3314) was inoculated into reinforced clostridial (RC) medium, sealed using a […] system in an anaerobic culture tank, and then anaerobically cultured at 37° C. for two days. As an aerobic strain of Candida albicans (ATCC 10231), Sabaurd Dextrose Agar (Difco. USA) was used, inoculated with the bacteria, and cultured in an incubator at 25° C. for 24 hours. As an aerobic strain, Staphylococcus epidermidis (KTTC12228) was inoculated into Mueller-Hinton medium and cultured at 37° C. for 24 hours before use. With respect to the ingredients according to Preparation Example and Comparative Preparation Example, an antibacterial activity against Staphylococcus epidermidis (KTC12228) was measured by using a paper disk diffusion method. Specifically, the evaluation of antibacterial activity against Staphylococcus epidermidis (KTTC12228), which is a secondary acne-causing pathogen, was performed by carrying out a cultivation with Muller-Hinton medium at 37° C. for 24 hours, and evenly spreading a bacterial suspension adjusted at a constant concentration (absorbance of 0.5 at an optical density of 620 nm) on an RC agar plate using a sterile cotton swab. After that, the plate was dried and a paper disk (Φ 8 mm, […]. USA) was placed on the surface of the plate inoculated with the strain, after which samples according to Preparation Example 2 and Comparative Preparation Examples 1 to 4, the positive control tetracycline and a mixed sample of Preparation Examples 1 and 2 (6:4) were absorbed thereon for each concentration. The sample-treated plate was cultured in an anaerobic culture tank for three days using the […] system, after which the antibacterial activity was measured by the size of the inhibition zone around the disk, and the results thereof are shown in table 2 below, respectively.

As usually defined, the zone of inhibition is the size of the clear area around the sample on an inoculated plate. As for `CN(C)[C@@H]1C(O)=C(C(N)=O)C(=O)[C@@]2(O)C(O)=C3C(=O)c4c(O)cccc4[C@@](C)(O)[C@H]3C[C@@H]12` [Tetracycline, tetracycline], the zone of inhibition at 1000 µg/disc (Staphylococcus epidermidis, concentration 1 mg, read-out: Zone of inhibition (diameter in mm)) was ~12 mm. Also, for the setting “Staphylococcus epidermidis, concentration 5 mg, read-out: Zone of inhibition (diameter in mm)”, the zone of inhibition at 5000 µg/disc was ~14 mm. Also, the “Zone of inhibition (diameter in mm)” value is, setting by setting: (concentration 1 mg) 12.82 ± 0.43 mm; (concentration 5 mg) 14.92 ± 0.23 mm.
